According to US20100160351A1, “PHARMACEUTICAL COMPOSITIONS AND METHODS FOR TREATING HYPERURICEMIA AND RELATED DISORDERS” (NUON THERAPEUTICS, INC., priority 2008, published 2010):
Where “and” joins values, the source holds several entries; their conditions need not be identical. Identical values can stand only once.

How the values were obtained:
[1] = tested on: monosodium urate (MSU) crystal-induced air pouch inflammation; experiment: Air Pouch Model 1: MSU crystal air pouch, rodent model of gout; format: in vivo, male Sprague-Dawley rats; conditions: for Average Exudate Volume / Average Plasma Extravasation, OD620 nm / Total WBC in Sample / WBC: +MSU, 4 h
Method: The objective of this study was to evaluate the anti-inflammatory affects of tranilast versus a clinically active treatment for gout, colchicine, as well as a clinically active non-steroidal antiinflammatory drug, indomethacin. This evaluation was carried out in male Sprague-Dawley rats in a rodent model of gout. The animals were injected subcutaneously with 20 ml of sterile air, followed three days later by a supplemental injection with 20 ml of sterile air. Six days after the initial sterile air injection, the rats were injected intravenously with Evan's Blue and pretreated for thirty minutes with either a subcutaneous injection of colchicine (1 mg/kg) or indomethacin (5 mg/kg) or oral administration with either 200 mg/kg or 400 mg/kg of tranilast. After the pretreatment period, the rats were injected with 150 mg of monosodium urate (MSU) crystals (10 mg·ml) into the air pouch. Four hours later, the air pouch was injected with 5 ml heparinized saline and the entire contents of the air pouch removed, recording the total volume. The air pouch contents were evaluated for plasma extravasation and total white blood cell (WBC) count.
(§1) On day 0 the rats were anesthetized in a biological cabinet, the nape of the neck was cleansed with 70% isopropanol followed by iodine tincture (VEDCO, lot L021976). Twenty ml sterile (0.22 μm, Fisher Scientific, Cat. 09-720-3, lot R5SN25683) air was injected subcutaneously using a 23 G×2 inch needle fixed to a 20 ml syringe. The rats were returned to routine housing. No adverse reactions were observed.
as §1, with “day 3” for “day 0”
On day 6 the rats were weighed (Mettler, Model PE3000, SN: F69474) and sorted into six treatment groups of ten animals each, based upon average weight. The animals were either dosed subcutaneously with 1 ml/kg colchicine or indomethacin, or orally with either 4 ml/kg or 8 ml/kg tranilast, or 8 ml/kg vehicle. Immediately after test material administration, the rats were intravenously injected with 2 ml/kg Evans Blue.
Thirty minutes after test material administration, the rats were anesthetized and five groups were injected into the air pouch with 15 ml MSU using an 18 G×1 inch needle fitted to a 20 ml syringe. The sixth group was injected with 15 ml saline. The rats were returned to their cages, no adverse affects were observed.
Four hours after MSU injection, the rats were anesthetized and 5 ml 10 U/ml heparinized saline was injected into the air pouch. The air pouch was gently massaged, the contents immediately removed using a 14 G×1 inch needle fitted to a 6 ml syringe, and the exudate volume recorded. An aliquot of the exudate was transferred to heparin-treated microtainer tubes (Becton Dickinson, Cat. 365958, lot 8093666, exp. June 09) for white blood cell (WBC) counting. The remainder of the exudate was centrifuged (Hermle Labrotechnik, Model Z200A, SN: 44060036), the supernatants removed and evaluated at OD620nm (Spectronic Unicam, Model 4000 1/4, SN: 3SGD003006) for plasma extravasation.

[2] = tested on: serum uric acid (sUA) levels; experiment: Study A3006GT: phase 2 crossover, sUA in healthy subjects with screening sUA of at least 7.1 mg/dL; tranilast, febuxostat, combination; format: in vivo, human
Method: Study A3006GT was a phase 2, randomized, double-blind, 3-period, 3-treatment crossover trial. The primary objective was to compare the effects of three treatments on serum uric acid (sUA) levels in healthy subjects with a screening sUA level of at least 7.1 mg/dL. The three treatments were: 300 mg QD tranilast and 40 mg QD febuxostat (C); 300 mg QD tranilast alone (T); 40 mg QD febuxostat alone (F).
The study was conducted in 23 subjects. […] With two exceptions, every subject provided data for all three treatments. Subject 1001 completed only the first two periods of the study (C and F). […] Therefore, the period 3 data for subject 1024 are excluded from the analyses presented here.
Two endpoints were considered: change from baseline to day 7 in sUA; and percent change from baseline to day 7 in sUA. For each endpoint, an analysis of variance (ANOVA) model for a three-period crossover trial was used. The model included effects for sequence, subject within sequence, treatment, and period. The sequence effect was tested using the subject within sequence mean square as the error term. Two pairwise comparisons between treatments were tested: C−F and C−T. In addition, the two-sided 95% confidence interval for each of these differences was computed.
For each subject for which results were available from all three treatments, the difference between the change for C and the sum of the changes for F and T was computed. Although the true magnitude of the difference between these two values is not known, a conservative null hypothesis is that this difference should be equally likely to be greater than or less than zero. The sign test and the Wilcoxon signed rank test were used to test this null hypothesis.
Using the change for each subject as the dependent variable, an analysis of variance (ANOVA) model for a three-period crossover trial was fit. This model included effects for sequence, subject within sequence, treatment, and period. Using the least squares estimates of the mean changes for each treatment, along with the 3×3 covariance matrix of these three estimates, the mean and SD of the difference between C and F+T was estimated, as follows.

[3] = 1 mg/kg colchicine subcutaneous, 30 min before MSU
[4] = Group 2: colchicine 1 mg/kg subcutaneous
[5] = end of 1-week treatment (day 7), C: 300 mg QD tranilast + 40 mg QD febuxostat, T: 300 mg QD, F: 40 mg QD
[6] = individual subjects, per study period, end of the 1-week treatment period
[7] = 5 mg/kg indomethacin subcutaneous, 30 min before MSU
[8] = Group 3: indomethacin 5 mg/kg subcutaneous

How did the “inhibition of plasma extravasation” value [1, 3] turn out when `COc1cc2c(c(OC)c1OC)-c1ccc(OC)c(=O)cc1[C@@H](NC(C)=O)CC2` [Colchicine, N-[1,2,3,10-Tetramethoxy-9-oxo-5,6,7,9-tetrahydrobenzo[a]heptalen-7(S)-yl]acetamide] was run?
Its value is 52%.

And the “reduction in inflammatory cell infiltration” value [1, 3]?
Its value is 88%.

What about the “Average Exudate Volume” value [1, 4] of the same molecule?
The value was 3.9 mL.

And the “Average Plasma Extravasation, OD620 nm” value [1, 4]?
The value was 0.776.

And the “Total WBC in Sample” value [1, 4]?
Its value is 35131400.

And the WBC [1, 4]?
The WBC was 9215000 cells/ml.

How did the “sUA Change from Baseline, Max” value [2, 5] turn out when `Cc1nc(-c2ccc(OCC(C)C)c(C#N)c2)sc1C(=O)O` [F] was run?
Its value is -0.70 mg/dL.

And the “sUA Change from Baseline, Mean” value [2, 5]?
Its value is -2.75 mg/dL.

And the “sUA Change from Baseline, Median” value [2, 5]?
The value was -2.85 mg/dL.

And the “sUA Change from Baseline, Min” value [2, 5]?
Its value is -3.80 mg/dL.

What about the “sUA Percent Change from Baseline, Max” value [2, 5] of the same molecule?
Its value is −9.21%.

What about the “sUA Percent Change from Baseline, Mean” value [2, 5] of the same molecule?
Its value is −35.32%.

What about the “sUA Percent Change from Baseline, Median” value [2, 5] of the same molecule?
Its value is −36.86%.

What about the “sUA Percent Change from Baseline, Min” value [2, 5] of the same molecule?
The value was −48.68%.

What about the “sUA Change from baseline” value [2, 6] of the same molecule?
The value was −0.7 mg/dL and −2.9 mg/dL (2×) and −2.1 mg/dL (2×) and −1.2 mg/dL and −1.8 mg/dL and −2.8 mg/dL and −3.5 mg/dL (2×) and −2.4 mg/dL and −3.7 mg/dL (2×) and −2.7 mg/dL and −3.6 mg/dL (2×) and −3.3 mg/dL and −3.8 mg/dL and −2.2 mg/dL and −3.1 mg/dL and −2.3 mg/dL and −2.6 mg/dL.

What about the “sUA Percent Change from baseline” value [2, 6] of the same molecule?
The value was −9.21% and −35.80% and −28.00% and −16.90% and −22.78% and −41.43% and −43.08% and −40.23% and −35.82% and −36.63% and −41.54% and −46.75% and −28.38% and −37.08% and −43.18% and −31.43% and −40.70% and −39.13% and −48.68% and −42.47% and −35.38% and −32.50%.

`COc1ccc2c(c1)c(CC(=O)O)c(C)n2C(=O)c1ccc(Cl)cc1` [Indomethacin] was tested. Which “reduction in inflammatory cell infiltration into the air pouch” value [1, 7] did it give?
Its value is 94%.

What about the “reduction of plasma extravasation” value [1, 7] of the same molecule?
Its value is 69%.

And the “Average Exudate Volume” value [1, 8]?
The value was 4.9 mL.

What about the “Average Plasma Extravasation, OD620 nm” value [1, 8] of the same molecule?
The value was 0.505.

And the “Total WBC in Sample” value [1, 8]?
Its value is 18520000.

What about the WBC [1, 8] of the same molecule?
Its WBC is 4160000 cells/ml.
